# Where two headings read alike, the source gives them in different places.
# Tests used:
# DENV-1 G3 Malaysia = assay type: cell-based; settings: T108I in NS4B
# TOX-MT4LTRLUC = assay type: cell-based; settings: human, MT4LTRLUC cells
# Excerpt: Supplement 41586_2023_5790_MOESM14_ESM.xlsx, sheet "Ext. Data Table 1" | column: Mean
# INF-B Singapore = assay: microbe, parasite or virus in culture; assay type: cell-based; settings: Influenza B virus, MDCK
# panel of 20 DENV strains = assay: DENV genotype panel (20 strains) RT-qPCR, Vero E6; assay type: cell-based, DENV-1–4; settings: Dengue virus, DENV4 / genotype 3, Vero C1008, read-out: mean EC50, range
# Procedure: A total of 20 DENV strains, representing the available genotypes within the four DENV serotypes, were used in the in vitro genotype panel, from which 19 viruses were described previously in ref. [3] and one additional virus, DENV-1/45AZ5 (ref. [54]), was added.
# A potential toxic effect on host cells was tested in parallel, while omitting virus infection, using the MTS/PMS method (Promega) for Vero cells, or by high-content imaging for C6/36 cells, as described previously. […] RT–qPCR data were analysed using the QuantStudio 12K Flex software (v.1.2.3) or SDS v.1.2 Applied Biosystems software. Inhibition values for antiviral molecules were plotted using KaleidaGraph plotting software (v.4.03, Synergy Software).
smiles,measurement,setting,value
COc1cc(N[C@H](C(=O)c2c[nH]c3ccc(OC(F)(F)F)cc23)c2ccc(Cl)cc2OC)cc(S(C)(=O)=O)c1 [JNJ-1802],EC90,DENV-1 G3 Malaysia,0.00304 ± 0.00069 µM
same,CC50,TOX-MT4LTRLUC,8.14 µM
same,CC90,TOX-MT4LTRLUC,21.2 µM
same,EC50,INF-B Singapore,> 2.6 µM
same,EC50,"INF-B Singapore; read-out: EC50, Mean",> 25 µM
same,EC90,"INF-B Singapore; read-out: EC90, Mean",> 25 µM
same,EC50,panel of 20 DENV strains,0.04 to 1.8 nM

# Reference: paper PMC10033419, “Blocking NS3–NS4B interaction inhibits dengue virus in non-human primates” (Nature, 2023)
